Data taken from patent US10772326B2 (priority 2014, dated 2020).
Read-outs that look alike come from different tables or passages of the source.

Legend:
Las [1] = type: in vivo, Candidatus Liberibacter asiaticus; details: 1% (w/v) in 70% ethanol, foliar spray to run-off; 1-2 weeks later and for several months; positive = Ct ≤ 35
Swingle rootstocks = assay: Phytotoxicity of soil drench on potted citrus; type: in vivo; details: drench to run-off
Description: (§1) To further test the phytoxicity of cinnamaldehyde or carvacrol in 70% ethanol, and 70% ethanol alone on citrus plants, we applied 1% and 10% cinnamaldehyde or carvacrol (each dissolved in 70% ethanol) on Swingle rootstocks (˜6 inches to 1 foot tall) by adding sufficient liquid to soil of potted citrus to the point of run-off of the drench. We also applied 70% ethanol as control in these two methods.

Las [2] = details: 1.5% (w/v) in 100% DMSO
Las [3] = details: spray to run-off
[4] = test system: E. coli Stratagene strain “Solopack”; assay: Disc test of essential oils on E. coli growth on LB agar; type: cell-based; details: 20 μl undiluted on 6 mm disc, 24 hrs
Protocol: The essential oils cinnamadehyde (Aldrich, W228605; ≥98% purity), carvacrol (Aldrich, W224502; ≥98% purity) and geraniol (Aldrich, 163333; 98% purity) were purchased Sigma-Aldrich (St. Louis, Mo.). A single colony of E. coli Stratagene strain “Solopack” was inoculated in 5 ml of Luria Broth (LB) liquid medium with shaking at 37° C. overnight. Two hundred μl of the E. coli overnight cultures were placed on an LB agar plate, and spread evenly with glass beads. The bacterial culture was allowed to absorb into the LB medium. Within 30 min after absorption, 20 μl drops of the three essential oils (cinnamaldehyde, carvacrol or geraniol) were separately placed without dilution on 6 mm discs (Whatman, Cat No. 2017-006; GE healthcare Life Science) and the treated disks were placed on top of the plates with E. coli. The plates were then incubated for 24 hrs. […] Experiments were repeated, with the same results.

[5] = test system: L. crescens strain BT-1 (Lcr); type: cell-based, Liberibacter crescens; details: 5 days; for inhibition of the growth of Lcr: 20 μl on 6 mm disc
[6] = test system: Swingle rootstocks and sweet orange; assay: Phytotoxicity of foliar spray or leaf painting on citrus; type: in vivo; details: spray to run-off or leaf painting
Description: as §1, with “To” for “To further”, “1% (w/v)” for “1%”, “10% (w/v)” for “10%”, “spraying” for “adding sufficient liquid to soil of potted citrus”, “spray and also sweet orange (˜3 foot tall) by painting one or both sides of a portion of the leaf surface.” for “drench.”

[7] = 1% in 70% ethanol (carvacrol: 8 mg/ml (1%))

Row | Structure (SMILES) | Las qPCR tests after treatment (Las [1]) | phytotoxicity, soil drench (Swingle rootstocks; [7]) | phytotoxicity, soil drench (Swingle rootstocks; 10% w/v in 70% ethanol) | effect on the trees (defoliation) (Las [2]; 2 x 20 ml trunk injection, 6-7 days later) | PCR tests for presence of Las in new shoots (Las [2]; trunk injection) | weekly PCR tests for Las for the next 9 months (Las [2]; trunk injection) | PCR tests for presence of Las (Las [3]; 0.3% in 50% DMSO) | effect on the trees (defoliation) (Las [3]; 0.3% in 50% DMSO) | weekly qPCR tests for Las for the next nine months (Las [3]; 1.5% in 50% DMSO) | effect on the trees (defoliation) (Las [3]; 1.5% in 50% DMSO, 6-7 days later) | PCR tests for presence of Las in new shoots (Las [3]; 1.5% in 50% DMSO, about 3 weeks after defoliation) | inhibition of the growth of E. coli [4] | relative inhibition of the growth of E. coli (ranking) [4] | inhibition of the growth of Lcr ([5]; 2 mg/ml in 70% ethanol) | level down to which inhibitory to Lcr ([5]; two-fold serial dilutions in 70% ethanol, disc test) [mg/mL] | phytotoxicity, foliar ([6]; 1% (w/v) in 70% ethanol) | phytotoxicity, foliar ([6]; 10% w/v in 70% ethanol) | inhibition of the growth of Lcr ([5]; 2 mg/ml to 0.125 mg/ml in 70% ethanol)
1 | O=C/C=C/c1ccccc1 [cinnamaldehyde] | qPCR positive | not at all phytotoxic | moderately phytotoxic | completely defoliated | completely negative | remained completely PCR negative | remained infected | appeared unaffected | remained completely negative | completely defoliated | completely Las negative | inhibitory | more inhibitory than geraniol | surprisingly strong inhibition | 1 | not at all phytotoxic | moderately phytotoxic | –
2 | Cc1ccc(C(C)C)cc1O [carvacrol, reference compound] | – | highly phytotoxic | – | – | – | – | – | – | – | – | – | inhibitory | more inhibitory than cinnamaldehyde | only slight inhibition | – | highly phytotoxic | – | –
3 | CC(C)=CCC/C(C)=C/CO [geraniol, reference compound] | – | – | – | – | – | – | – | – | – | – | – | inhibitory | – | – | – | – | – | not inhibitory
